Results on two molecules are retold here after patent EP0398230B1, “Antiviral, highly water soluble, stable, crystalline salts of 2',3'-dideoxyinoside monohydrate, 2',3'-dideoxy-2',3'-didehydrothymidine monohydrate and 2',3'-dideoxy-2'-fluoroinosine hemihydrate” (priority 1989, dated 1990).

Like-named read-outs stand apart in the source and are kept apart here.

The conditions of data set [1]: 5 weeks at 70°C.
The nature of data set [2]: physchem. Conditions: water, pH 10, water, thermodynamic from solid.

For the molecule `OC[C@@H]1CC[C@H](n2cnc3c(O)ncnc32)O1.[Na]` [Na-DDI·H2O, sodium-2',3'-dideoxyinosine], the “Aqueous Solution Stability, loss” value is reported as 5% (1 week at 50°C) and 10% (1 week at 70°C). Further, in data set [1], the “Solid State Stability” value is recorded as “No loss”.

By solubility is commonly meant the concentration that dissolves in the medium under given conditions. The low end stands for a poorly soluble substance, the high end for a readily soluble substance. `O=c1[nH]cnc2c1ncn2[C@@H]1O[C@H](CO)C[C@@H]1F` [Sodium F-ddI Hemihydrate, sodium-2',3'-dideoxy-2'-fluoroinosine] returned a solubility in data set [2] of about 400 mg/mL.
